Source: ChEMBL document CHEMBL1145400, “Synthesis and biological evaluation of 4(5)-(6-alkylpyridin-2-yl)imidazoles as transforming growth factor-beta type 1 receptor kinase inhibitors” (J Med Chem, 2007)

What was measured:
[1] = biological target: T1, TGF-beta receptor type-1 (Homo sapiens, UniProt P36897); assay: Inhibition of human recombinant ALK5 phosphorylation expressed in Sf9 cells
T1 sequence (P36897 whole entry): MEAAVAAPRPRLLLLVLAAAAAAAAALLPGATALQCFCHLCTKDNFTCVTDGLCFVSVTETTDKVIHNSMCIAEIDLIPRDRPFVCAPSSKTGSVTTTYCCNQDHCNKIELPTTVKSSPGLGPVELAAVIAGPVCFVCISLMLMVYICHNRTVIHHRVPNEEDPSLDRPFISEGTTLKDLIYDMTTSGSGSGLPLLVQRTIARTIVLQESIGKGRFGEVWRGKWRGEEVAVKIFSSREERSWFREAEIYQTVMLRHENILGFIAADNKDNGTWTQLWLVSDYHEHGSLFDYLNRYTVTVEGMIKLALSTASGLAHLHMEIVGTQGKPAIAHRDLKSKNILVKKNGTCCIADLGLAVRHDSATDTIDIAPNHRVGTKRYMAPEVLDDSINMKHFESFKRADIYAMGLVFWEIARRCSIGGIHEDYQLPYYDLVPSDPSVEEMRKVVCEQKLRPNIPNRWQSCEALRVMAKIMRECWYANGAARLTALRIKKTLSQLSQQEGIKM

[2] = biological target: Mitogen-activated protein kinase 14 (Homo sapiens, UniProt Q16539)
[3] = biological target: T2, Serine/threonine-protein kinase D1 (Homo sapiens, UniProt Q15139); assay: Inhibition of PKCmu
T2 sequence (Q15139 whole entry): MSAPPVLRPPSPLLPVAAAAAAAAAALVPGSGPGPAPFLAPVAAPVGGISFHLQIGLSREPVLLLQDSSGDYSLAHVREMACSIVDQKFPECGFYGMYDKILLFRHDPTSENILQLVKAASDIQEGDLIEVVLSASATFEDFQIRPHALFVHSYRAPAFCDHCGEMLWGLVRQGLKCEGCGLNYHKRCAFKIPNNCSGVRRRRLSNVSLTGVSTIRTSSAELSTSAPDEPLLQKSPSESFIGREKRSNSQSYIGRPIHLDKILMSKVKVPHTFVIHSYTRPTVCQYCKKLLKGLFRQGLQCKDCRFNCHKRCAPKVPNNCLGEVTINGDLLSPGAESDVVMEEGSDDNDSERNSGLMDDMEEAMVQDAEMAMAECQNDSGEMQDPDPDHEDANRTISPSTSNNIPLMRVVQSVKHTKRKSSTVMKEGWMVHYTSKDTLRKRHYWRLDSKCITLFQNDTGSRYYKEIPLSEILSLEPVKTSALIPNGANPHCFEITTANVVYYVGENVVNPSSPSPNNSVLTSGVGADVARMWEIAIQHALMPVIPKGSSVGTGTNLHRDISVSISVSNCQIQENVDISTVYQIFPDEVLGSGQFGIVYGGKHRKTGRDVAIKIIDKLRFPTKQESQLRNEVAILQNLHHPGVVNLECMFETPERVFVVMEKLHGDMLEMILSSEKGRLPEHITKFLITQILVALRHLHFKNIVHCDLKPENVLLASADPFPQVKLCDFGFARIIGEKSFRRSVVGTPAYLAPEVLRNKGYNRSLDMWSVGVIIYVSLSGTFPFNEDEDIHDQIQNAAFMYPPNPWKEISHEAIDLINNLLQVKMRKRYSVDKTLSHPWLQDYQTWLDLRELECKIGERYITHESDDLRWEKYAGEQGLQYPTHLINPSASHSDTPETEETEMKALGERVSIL

Sequence of Mitogen-activated protein kinase 14 (Q16539 whole entry): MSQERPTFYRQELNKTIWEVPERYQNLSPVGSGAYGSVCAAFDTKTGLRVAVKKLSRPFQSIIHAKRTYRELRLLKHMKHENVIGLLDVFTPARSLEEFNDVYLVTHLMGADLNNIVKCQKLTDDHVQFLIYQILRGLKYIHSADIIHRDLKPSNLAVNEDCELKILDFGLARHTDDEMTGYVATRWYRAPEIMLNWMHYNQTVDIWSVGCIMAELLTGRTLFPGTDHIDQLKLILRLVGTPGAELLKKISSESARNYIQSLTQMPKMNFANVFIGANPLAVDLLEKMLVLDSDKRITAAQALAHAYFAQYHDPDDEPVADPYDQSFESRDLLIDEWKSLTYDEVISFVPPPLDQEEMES

| SMILES | IC50 [1] [nM] | IC50 [2] [nM] | IC50 [3] [nM] |
| --- | --- | --- | --- |
| Cc1cccc(-c2[nH]c(NCc3cccc(C#N)c3)nc2-c2ccc3c(c2)OCO3)n1 | 24 |  |  |
| Cc1cccc(-c2[nH]c(CNc3ccc(C#N)cc3)nc2-c2ccc3c(c2)OCO3)n1 | 174 |  |  |
| CCc1cccc(-c2[nH]c(CNc3ccc(C#N)cc3)nc2-c2ccc3nccnc3c2)n1 | 47 |  |  |
| Cc1cccc(-c2nc(CNc3ccc(C(N)=O)cc3)[nH]c2-c2ccc3nccnc3c2)n1 | 75 |  |  |
| Cc1cccc(-c2[nH]c(CNc3cccc(C#N)c3)nc2-c2ccc3c(c2)OCO3)n1 | 46 |  |  |
| Cc1cccc(-c2[nH]c(CNc3cccc(C#N)c3)nc2-c2ccc3nccnc3c2)n1 | 12 | 1030 | 1000 |
| Cc1cccc(-c2[nH]c(CNc3cccc(C(N)=O)c3)nc2-c2ccc3c(c2)OCO3)n1 | 21 |  |  |

Second part, led by results:

| IC50 [1] [nM] | SMILES | IC50 [2] [nM] | IC50 [3] [nM] |
| --- | --- | --- | --- |
| 92 | CCc1cccc(-c2nc(CNc3ccc(C(N)=O)cc3)[nH]c2-c2ccc3nccnc3c2)n1 |  |  |
| 73 | CCc1cccc(-c2nc(CNc3cccc(C#N)c3)[nH]c2-c2ccc3c(c2)OCO3)n1 |  |  |
| 360 | CCc1cccc(-c2[nH]c(CNc3ccc(C#N)cc3)nc2-c2ccc3c(c2)OCO3)n1 |  |  |
| 42 | Cc1cccc(-c2[nH]c(CNc3ccc(C#N)cc3)nc2-c2ccc3nccnc3c2)n1 |  |  |
| 119 | CCc1cccc(-c2[nH]c(CNc3cccc(C#N)c3)nc2-c2ccc3nccnc3c2)n1 |  |  |
| 262 | Cc1cccc(-c2[nH]c(CNc3ccc(C(N)=O)cc3)nc2-c2ccc3c(c2)OCO3)n1 |  |  |
| 46 | CCc1cccc(-c2nc(CNc3cccc(C(N)=O)c3)[nH]c2-c2ccc3c(c2)OCO3)n1 |  |  |
| 10 | Cc1cccc(-c2nc(CNc3cccc(C(N)=O)c3)[nH]c2-c2ccc3nccnc3c2)n1 |  |  |
| 15 | CCc1cccc(-c2[nH]c(CNc3cccc(C(N)=O)c3)nc2-c2ccc3nccnc3c2)n1 |  |  |
| 385 | CCc1cccc(-c2[nH]c(CNc3ccc(C(N)=O)cc3)nc2-c2ccc3c(c2)OCO3)n1 |  |  |
| 153 | Cc1cccc(-c2[nH]c(NCc3ccc(C#N)cc3)nc2-c2ccc3c(c2)OCO3)n1 |  |  |
